Patent US7230023B2, “Water-soluble triazole fungicide” (Sankyo Company, Limited, priority 2001, dated 2007)
In brackets after ≈: the same amount, converted by molar mass.

Columns and labels:
[1] = test system: Cryptococcus neoformans TIMM 0362; assay: Antifungal activity against Cryptococcus neoformans, MIC by broth microdilution; assay type: cell-based; conditions: TIMM0362, yeast nitrogen base medium pH 7.0, 35° C., 48-72 hours, at least 50% growth inhibition, absorbance at 485 nm, read-out: MIC values C.n.
Protocol: (§1) The antifungal activities of compound A were assessed according to the minimum inhibitory concentrations (MICs) which were measured by the methods described below:
Determination of antifungal activity against Cryptococcus neoformans: MICs were determined by the broth microdilution method. Test compound was dissolved in DMSO. Serial two-fold dilution of the test compound was performed with DMSO, and the final dilution was performed with yeast nitrogen base medium (product of Difco Laboratories) buffered to pH 7.0 with 0.165M MOPS. […] Colonies of the test fungi were suspended in physiological saline followed by adjustment to 5.0×10^3 to 2.5×10^4 cells/ml with yeast nitrogen base medium buffered to pH 7.0 with 0.165M MOPS. 100 μl of the fungal suspension and 100 μl of each diluted test compound solution were mixed in each well of microtitre plates, before incubating at 35° C. for 48-72 hours. […] The MICs were defined as the lowest compound concentrations causing at least 50% growth inhibition when compared with the control as measured by light absorbance at 485 nm.

[2] = test system: Candida albicans TIMM 3165; assay: Antifungal activity against Candida, MIC by broth microdilution; assay type: cell-based; conditions: TIMM3165, RPMI1640 pH 7.0, 35° C., 24-72 hours, at least 80% growth inhibition, read-out: MIC values C.a. (3)
Protocol: as §1
(§2) Determination of antifungal activity against Candida: The MICs were determined by the broth microdilution method. Test compound was dissolved in dimethyl sulfoxide (DMSO). Serial two-fold dilution of the test compound was performed with DMSO, and then the final dilution was performed with RPMI1640 medium (product of Dainippon Pharmaceutical Co., Ltd.) which was buffered to pH 7.0 with 0.165M 3-(morpholino)propanesulfonic acid (MOPS). […] Colonies of the test fungi were suspended in physiological saline followed by adjustment to 5.0×10^2 to 2.5×10^3 cells/ml with RPMI1640 medium which was buffered to pH 7.0 with 0.165M MOPS. 100 μl of the fungal suspension and 100 μl of each diluted test compound solution were mixed in each well of microtitre plates, before incubating at 35° C. for 24-72 hours. […] The MICs were defined as the lowest compound concentrations causing at least 80% growth inhibition when compared with the control.

[3] = test system: Candida albicans ATCC 64550; assay: as above; assay type: cell-based; conditions: ATCC64550, RPMI1640 pH 7.0, 35° C., 24-72 hours, at least 80% growth inhibition, read-out: MIC values C.a. (1)
Protocol: as §1, §2

[4] = test system: Candida albicans TIMM 3164; assay: as above; assay type: cell-based; conditions: TIMM3164, RPMI1640 pH 7.0, 35° C., 24-72 hours, at least 80% growth inhibition, read-out: MIC values C.a. (2)
Protocol: as §1, §2

[5] = test system: Aspergillus fumigatus SANK 10569; assay: Antifungal activity against Aspergillus, MIC by broth microdilution; assay type: cell-based; conditions: SANK10569, RPMI1640 pH 7.0, 30° C., 24-72 hours, at least 80% growth inhibition, read-out: MIC values A.f.
Protocol: as §1
as §2, with “Aspergillus:” for “Candida: The”, “DMSO.” for “dimethyl sulfoxide (DMSO).”, “MOPS.” for “3-(morpholino)propanesulfonic acid (MOPS).”, “about 1.0×10^4” for “5.0×10^2 to 2.5×10^3”, “30°” for “35°”

[6] = test system: human liver microsome preparation; assay: Test to confirm formation of active substance: incubation with human liver microsome preparation, HPLC; assay type: in vitro ADME; conditions: human liver microsome preparation 0.5 mg protein/ml, initial concentration 1 μM, 37° C.
Protocol: The test compound was dissolved in a human liver microsome preparation (0.5 mg protein/ml, GENTEST Corporation) at an intial concentration of 1 μM and the mixture was incubated at 37° C.
A small aliquot of the sample was collected at certain time intervals, and the rate of persistence of the original compound and the rate of formation of compound A, the active substance with the chemical structure shown below, were determined by HPLC.
The results of incubating the compound of Example 5 (the disodium salt of example number 5-16) with the human liver microsome preparation are shown in FIG. 1.

SMILES | MIC [1] [µg/mL] | MIC [2] [µg/mL] | MIC [3] [µg/mL] | MIC [4] [µg/mL] | MIC [5] [µg/mL] | rate of persistence of the original compound [6] | rate of formation of compound A (active substance) ([6]; after incubation for 30 min)
C[C@@H](S[C@H]1CO[C@H](/C=C/C=C/c2ccc(C#N)cc2F)OC1)[C@](O)(Cn1cncn1)c1ccc(F)cc1F [Compound A] | ≤ 0.008 | 0.063 (≈ 0.116 µM) | 0.25 (≈ 0.461 µM) | ≤ 0.008 | 0.031 (≈ 0.0571 µM) | – | –
C[C@@H](S[C@H]1CO[C@H](/C=C/C=C/c2ccc(C#N)cc2F)OC1)[C@@](Cn1cncn1)(OC(=O)c1cc(C#N)ccc1COP(=O)([O-])[O-])c1ccc(F)cc1F.[Na+].[Na+] [Example 5, Disodium 4-cyano-2-[[(1R,2R)-2-[[trans-2-[(1E,3E)-4-(4-cyano-2-fluorophenyl)-1,3-butadienyl]-1,3-dioxan-5-yl]thio]-1-(2,4-difluorophenyl)-1-[(1H-1,2,4-triazol-1-yl)methyl]propoxy]carbonyl]benzyl phosphate] | – | – | – | – | – | diminished immediately after the incubation started | completely converted to compound A
